Columns and labels:
[1] = test system: NCI-H460; assay: Cytotoxicity against human NCI-H460 cells after 48 hrs by SRB assay; type: functional, cell-based; conditions: NCI-H460, 48 h
[2] = test system: NB-4; assay: Cytotoxicity against human NB4 cells after 48 hrs by SRB assay; type: functional, cell-based; conditions: NB-4, 48 h
[3] = test system: HCT-116; assay: Cytotoxicity against human HCT116 cells after 48 hrs by SRB assay; type: functional, cell-based; conditions: HCT-116, 48 h
[4] = target: Histone deacetylase 9 (Homo sapiens, UniProt Q9UKV0); assay: Inhibition of human HDAC9
[5] = target: T1, Histone deacetylase 8 (Homo sapiens, UniProt Q9BY41); assay: Inhibition of human HDAC8
T1 sequence (Q9BY41 whole entry): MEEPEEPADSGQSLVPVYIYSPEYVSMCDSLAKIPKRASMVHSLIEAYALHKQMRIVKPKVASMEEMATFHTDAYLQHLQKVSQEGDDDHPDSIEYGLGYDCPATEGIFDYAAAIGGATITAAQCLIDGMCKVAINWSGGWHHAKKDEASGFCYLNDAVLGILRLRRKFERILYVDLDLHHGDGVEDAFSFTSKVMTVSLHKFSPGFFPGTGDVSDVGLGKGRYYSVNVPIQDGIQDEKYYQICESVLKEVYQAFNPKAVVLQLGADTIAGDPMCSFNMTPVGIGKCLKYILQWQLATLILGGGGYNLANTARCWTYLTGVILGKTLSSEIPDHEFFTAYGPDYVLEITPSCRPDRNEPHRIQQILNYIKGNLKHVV

[6] = target: Histone deacetylase 5 (Homo sapiens, UniProt Q9UQL6); assay: Inhibition of human HDAC5
[7] = target: T2, Polyamine deacetylase HDAC10 (Homo sapiens, UniProt Q969S8); assay: Inhibition of human HDAC10
T2 sequence (Q969S8 whole entry): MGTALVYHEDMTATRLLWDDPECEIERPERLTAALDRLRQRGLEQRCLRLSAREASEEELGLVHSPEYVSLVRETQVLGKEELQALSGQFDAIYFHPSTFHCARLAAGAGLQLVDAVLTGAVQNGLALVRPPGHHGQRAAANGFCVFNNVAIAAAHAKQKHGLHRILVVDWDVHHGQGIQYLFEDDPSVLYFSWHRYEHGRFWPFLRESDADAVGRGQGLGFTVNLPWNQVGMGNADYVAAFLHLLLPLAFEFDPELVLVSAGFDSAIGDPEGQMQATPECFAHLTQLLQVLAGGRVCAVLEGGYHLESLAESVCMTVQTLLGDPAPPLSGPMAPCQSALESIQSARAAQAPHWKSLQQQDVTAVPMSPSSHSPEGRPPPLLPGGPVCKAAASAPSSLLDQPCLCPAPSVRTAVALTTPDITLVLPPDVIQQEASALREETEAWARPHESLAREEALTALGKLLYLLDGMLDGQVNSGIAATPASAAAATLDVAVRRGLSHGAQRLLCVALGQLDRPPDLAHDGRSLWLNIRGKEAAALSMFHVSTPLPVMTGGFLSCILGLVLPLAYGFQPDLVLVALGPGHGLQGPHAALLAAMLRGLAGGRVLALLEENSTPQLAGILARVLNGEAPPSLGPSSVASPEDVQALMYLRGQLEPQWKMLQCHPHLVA

[8] = target: T3, Histone deacetylase 7 (Homo sapiens, UniProt Q8WUI4); assay: Inhibition of human HDAC7
T3 sequence (Q8WUI4 whole entry): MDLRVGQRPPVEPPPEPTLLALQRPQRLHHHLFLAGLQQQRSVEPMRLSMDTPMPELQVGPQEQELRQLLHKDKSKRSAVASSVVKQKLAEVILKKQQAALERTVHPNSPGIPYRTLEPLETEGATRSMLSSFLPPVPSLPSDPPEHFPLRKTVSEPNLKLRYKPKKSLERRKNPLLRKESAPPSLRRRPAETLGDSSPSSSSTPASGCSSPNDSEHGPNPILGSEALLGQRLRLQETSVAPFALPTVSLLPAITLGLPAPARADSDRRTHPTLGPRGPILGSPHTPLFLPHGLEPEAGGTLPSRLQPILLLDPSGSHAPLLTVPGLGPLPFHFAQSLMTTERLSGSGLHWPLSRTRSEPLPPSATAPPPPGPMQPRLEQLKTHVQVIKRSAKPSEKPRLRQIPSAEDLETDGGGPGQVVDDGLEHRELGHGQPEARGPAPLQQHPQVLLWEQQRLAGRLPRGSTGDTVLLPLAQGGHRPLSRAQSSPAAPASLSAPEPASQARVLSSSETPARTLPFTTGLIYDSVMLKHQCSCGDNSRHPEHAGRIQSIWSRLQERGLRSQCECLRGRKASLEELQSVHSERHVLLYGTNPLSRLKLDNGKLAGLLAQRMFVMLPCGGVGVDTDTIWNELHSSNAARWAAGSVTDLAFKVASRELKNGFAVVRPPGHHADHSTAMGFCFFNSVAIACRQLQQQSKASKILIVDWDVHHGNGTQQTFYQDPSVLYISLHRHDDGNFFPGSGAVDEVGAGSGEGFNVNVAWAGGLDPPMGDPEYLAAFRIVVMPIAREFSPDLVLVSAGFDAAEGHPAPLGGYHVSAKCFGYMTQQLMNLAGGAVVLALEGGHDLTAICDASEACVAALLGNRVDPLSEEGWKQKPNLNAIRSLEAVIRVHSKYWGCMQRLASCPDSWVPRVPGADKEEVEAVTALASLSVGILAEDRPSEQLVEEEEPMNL

[9] = target: T4, Histone deacetylase 11 (Homo sapiens, UniProt Q96DB2); assay: Inhibition of human HDAC11
T4 sequence (Q96DB2 whole entry): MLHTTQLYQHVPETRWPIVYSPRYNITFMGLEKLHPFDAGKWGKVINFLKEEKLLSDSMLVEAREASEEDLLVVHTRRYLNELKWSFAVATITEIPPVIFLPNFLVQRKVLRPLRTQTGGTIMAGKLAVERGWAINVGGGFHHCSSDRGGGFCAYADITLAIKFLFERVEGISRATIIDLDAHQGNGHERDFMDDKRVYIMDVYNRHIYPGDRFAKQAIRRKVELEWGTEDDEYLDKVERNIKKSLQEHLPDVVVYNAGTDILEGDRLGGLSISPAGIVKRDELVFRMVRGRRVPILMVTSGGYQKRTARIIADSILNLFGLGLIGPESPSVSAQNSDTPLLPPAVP

[10] = target: Histone deacetylase 3 (Homo sapiens, UniProt O15379); assay: Inhibition of human HDAC3
[11] = target: Histone deacetylase 1 (Homo sapiens, UniProt Q13547)
[12] = target: Histone deacetylase 4 (Homo sapiens, UniProt P56524)
Description: Inhibition of human HDAC4

[13] = target: Histone deacetylase 2 (Homo sapiens, UniProt Q92769); assay: Inhibition of human HDAC2
[14] = target: T5, Protein deacetylase HDAC6 (Homo sapiens, UniProt Q9UBN7); assay: Inhibition of human HDAC6
T5 sequence (Q9UBN7 whole entry): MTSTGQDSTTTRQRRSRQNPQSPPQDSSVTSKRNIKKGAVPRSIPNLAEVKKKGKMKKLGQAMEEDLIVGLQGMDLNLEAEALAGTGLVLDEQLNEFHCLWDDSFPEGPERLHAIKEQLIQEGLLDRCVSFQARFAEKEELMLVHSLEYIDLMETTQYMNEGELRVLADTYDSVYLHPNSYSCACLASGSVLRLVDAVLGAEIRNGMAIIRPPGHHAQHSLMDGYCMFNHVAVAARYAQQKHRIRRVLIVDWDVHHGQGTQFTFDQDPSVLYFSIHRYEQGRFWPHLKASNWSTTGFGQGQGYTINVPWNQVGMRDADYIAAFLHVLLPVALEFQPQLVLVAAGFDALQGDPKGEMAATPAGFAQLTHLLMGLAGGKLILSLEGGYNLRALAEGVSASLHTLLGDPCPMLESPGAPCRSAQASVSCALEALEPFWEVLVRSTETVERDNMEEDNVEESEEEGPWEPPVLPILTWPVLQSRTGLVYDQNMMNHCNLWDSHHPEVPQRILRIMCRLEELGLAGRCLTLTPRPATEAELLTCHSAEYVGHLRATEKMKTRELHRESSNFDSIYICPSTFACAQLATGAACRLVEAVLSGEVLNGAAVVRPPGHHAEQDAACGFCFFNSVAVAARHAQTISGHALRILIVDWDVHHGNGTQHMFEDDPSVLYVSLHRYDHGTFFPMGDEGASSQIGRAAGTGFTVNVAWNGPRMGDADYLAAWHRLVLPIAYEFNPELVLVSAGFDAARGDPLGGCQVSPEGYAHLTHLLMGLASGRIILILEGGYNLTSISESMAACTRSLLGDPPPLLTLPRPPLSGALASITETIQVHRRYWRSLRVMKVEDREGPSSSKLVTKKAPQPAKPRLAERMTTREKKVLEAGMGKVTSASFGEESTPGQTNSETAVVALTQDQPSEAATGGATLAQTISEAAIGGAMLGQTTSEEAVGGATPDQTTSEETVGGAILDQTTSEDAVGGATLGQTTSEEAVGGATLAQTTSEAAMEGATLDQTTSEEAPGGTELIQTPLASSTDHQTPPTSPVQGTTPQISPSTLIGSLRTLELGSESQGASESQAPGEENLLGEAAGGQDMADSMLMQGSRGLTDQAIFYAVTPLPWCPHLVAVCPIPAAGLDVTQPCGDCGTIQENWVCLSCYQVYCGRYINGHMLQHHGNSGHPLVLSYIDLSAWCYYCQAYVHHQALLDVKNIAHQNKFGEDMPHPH

Histone deacetylase 1, sequence (Q13547 whole entry): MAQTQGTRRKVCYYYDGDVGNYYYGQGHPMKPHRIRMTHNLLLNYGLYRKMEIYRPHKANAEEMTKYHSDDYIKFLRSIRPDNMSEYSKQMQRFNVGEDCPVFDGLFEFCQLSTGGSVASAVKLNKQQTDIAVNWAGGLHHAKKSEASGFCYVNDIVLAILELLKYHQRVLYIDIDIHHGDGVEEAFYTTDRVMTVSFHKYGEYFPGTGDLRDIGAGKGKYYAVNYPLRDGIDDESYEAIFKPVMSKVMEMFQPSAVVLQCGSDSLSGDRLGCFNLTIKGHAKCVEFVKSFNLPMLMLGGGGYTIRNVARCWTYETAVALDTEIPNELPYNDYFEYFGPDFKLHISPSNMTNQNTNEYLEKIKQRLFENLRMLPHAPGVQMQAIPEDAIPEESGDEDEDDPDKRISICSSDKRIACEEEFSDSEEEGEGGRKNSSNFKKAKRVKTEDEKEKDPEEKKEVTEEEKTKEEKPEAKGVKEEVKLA
Histone deacetylase 4, sequence (P56524 whole entry): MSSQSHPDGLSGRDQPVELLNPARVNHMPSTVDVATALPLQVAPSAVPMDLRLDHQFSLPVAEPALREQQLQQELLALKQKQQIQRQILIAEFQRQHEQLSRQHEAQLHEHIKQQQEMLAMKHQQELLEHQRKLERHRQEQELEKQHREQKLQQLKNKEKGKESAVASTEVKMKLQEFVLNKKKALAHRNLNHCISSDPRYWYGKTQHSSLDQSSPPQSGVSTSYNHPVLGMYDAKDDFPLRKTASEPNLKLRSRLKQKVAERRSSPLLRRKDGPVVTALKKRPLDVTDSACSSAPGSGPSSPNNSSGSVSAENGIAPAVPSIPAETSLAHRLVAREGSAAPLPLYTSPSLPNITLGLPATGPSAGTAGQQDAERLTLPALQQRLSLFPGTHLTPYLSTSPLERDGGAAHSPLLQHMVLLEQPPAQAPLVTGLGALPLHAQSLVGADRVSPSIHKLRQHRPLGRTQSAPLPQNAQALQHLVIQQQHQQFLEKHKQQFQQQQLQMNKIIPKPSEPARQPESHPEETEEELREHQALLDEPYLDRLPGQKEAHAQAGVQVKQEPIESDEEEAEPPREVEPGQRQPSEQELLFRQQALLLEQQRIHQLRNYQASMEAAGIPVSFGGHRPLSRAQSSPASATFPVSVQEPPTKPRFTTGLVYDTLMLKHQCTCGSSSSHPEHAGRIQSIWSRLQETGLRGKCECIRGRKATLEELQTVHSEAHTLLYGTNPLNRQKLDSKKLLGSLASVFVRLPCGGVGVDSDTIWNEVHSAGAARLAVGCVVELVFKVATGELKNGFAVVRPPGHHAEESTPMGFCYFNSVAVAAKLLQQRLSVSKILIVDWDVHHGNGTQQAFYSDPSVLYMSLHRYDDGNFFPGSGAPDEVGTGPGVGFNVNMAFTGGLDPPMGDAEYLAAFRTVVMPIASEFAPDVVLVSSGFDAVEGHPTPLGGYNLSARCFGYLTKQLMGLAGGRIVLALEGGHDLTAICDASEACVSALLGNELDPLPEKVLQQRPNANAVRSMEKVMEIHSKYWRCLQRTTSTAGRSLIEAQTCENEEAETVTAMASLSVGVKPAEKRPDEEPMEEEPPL
Histone deacetylase 5, sequence (Q9UQL6 whole entry): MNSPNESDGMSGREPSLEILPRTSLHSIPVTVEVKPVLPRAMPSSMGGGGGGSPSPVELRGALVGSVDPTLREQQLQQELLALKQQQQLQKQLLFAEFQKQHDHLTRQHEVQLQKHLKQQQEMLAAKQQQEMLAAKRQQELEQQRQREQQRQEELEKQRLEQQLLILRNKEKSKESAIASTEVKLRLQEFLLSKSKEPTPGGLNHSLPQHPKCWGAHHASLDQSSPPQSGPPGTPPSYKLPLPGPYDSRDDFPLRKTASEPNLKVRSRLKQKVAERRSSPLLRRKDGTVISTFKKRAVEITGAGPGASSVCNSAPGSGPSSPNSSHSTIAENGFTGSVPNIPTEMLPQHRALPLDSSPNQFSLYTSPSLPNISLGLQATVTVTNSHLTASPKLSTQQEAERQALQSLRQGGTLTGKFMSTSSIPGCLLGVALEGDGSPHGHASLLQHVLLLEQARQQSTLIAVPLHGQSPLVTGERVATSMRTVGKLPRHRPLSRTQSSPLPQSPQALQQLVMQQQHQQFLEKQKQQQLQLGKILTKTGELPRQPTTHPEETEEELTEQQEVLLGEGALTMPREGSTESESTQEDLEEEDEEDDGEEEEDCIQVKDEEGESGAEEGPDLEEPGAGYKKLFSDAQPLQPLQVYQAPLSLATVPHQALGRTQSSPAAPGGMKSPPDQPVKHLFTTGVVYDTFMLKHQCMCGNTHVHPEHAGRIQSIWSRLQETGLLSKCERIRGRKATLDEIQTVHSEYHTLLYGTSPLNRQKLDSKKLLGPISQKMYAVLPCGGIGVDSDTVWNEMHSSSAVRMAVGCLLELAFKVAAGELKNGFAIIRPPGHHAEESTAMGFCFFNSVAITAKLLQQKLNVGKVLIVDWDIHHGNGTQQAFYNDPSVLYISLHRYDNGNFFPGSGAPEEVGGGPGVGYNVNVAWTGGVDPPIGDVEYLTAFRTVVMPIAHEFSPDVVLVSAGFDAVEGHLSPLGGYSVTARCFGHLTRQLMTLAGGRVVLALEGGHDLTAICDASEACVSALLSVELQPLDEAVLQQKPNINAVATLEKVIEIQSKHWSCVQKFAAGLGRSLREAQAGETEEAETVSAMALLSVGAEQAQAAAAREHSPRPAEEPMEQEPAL
Histone deacetylase 3, sequence (O15379 whole entry): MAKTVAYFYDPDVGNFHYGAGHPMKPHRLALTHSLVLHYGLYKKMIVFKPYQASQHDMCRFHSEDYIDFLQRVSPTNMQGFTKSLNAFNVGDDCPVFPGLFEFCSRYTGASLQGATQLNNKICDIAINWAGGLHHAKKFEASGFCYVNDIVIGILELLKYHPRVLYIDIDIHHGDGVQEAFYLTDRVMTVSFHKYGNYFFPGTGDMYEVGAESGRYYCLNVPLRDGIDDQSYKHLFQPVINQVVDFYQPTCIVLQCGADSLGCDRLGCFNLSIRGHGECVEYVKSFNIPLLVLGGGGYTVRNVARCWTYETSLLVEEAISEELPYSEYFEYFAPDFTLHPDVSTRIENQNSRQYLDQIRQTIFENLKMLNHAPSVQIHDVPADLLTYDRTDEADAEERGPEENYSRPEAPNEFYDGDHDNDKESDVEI
Histone deacetylase 2, sequence (Q92769 whole entry): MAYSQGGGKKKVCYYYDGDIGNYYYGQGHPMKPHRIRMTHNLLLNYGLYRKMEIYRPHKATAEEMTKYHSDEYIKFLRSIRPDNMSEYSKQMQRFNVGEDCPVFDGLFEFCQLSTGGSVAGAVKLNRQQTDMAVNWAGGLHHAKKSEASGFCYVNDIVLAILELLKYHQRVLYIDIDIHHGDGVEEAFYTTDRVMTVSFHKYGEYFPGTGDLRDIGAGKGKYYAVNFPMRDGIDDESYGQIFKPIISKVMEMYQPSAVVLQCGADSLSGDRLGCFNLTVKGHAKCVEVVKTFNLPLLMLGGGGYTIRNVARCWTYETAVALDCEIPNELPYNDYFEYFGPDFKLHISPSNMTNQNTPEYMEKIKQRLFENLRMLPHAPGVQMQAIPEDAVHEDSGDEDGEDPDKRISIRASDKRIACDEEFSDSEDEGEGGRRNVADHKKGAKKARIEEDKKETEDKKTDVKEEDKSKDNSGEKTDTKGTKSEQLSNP
Histone deacetylase 9, sequence (Q9UKV0 whole entry): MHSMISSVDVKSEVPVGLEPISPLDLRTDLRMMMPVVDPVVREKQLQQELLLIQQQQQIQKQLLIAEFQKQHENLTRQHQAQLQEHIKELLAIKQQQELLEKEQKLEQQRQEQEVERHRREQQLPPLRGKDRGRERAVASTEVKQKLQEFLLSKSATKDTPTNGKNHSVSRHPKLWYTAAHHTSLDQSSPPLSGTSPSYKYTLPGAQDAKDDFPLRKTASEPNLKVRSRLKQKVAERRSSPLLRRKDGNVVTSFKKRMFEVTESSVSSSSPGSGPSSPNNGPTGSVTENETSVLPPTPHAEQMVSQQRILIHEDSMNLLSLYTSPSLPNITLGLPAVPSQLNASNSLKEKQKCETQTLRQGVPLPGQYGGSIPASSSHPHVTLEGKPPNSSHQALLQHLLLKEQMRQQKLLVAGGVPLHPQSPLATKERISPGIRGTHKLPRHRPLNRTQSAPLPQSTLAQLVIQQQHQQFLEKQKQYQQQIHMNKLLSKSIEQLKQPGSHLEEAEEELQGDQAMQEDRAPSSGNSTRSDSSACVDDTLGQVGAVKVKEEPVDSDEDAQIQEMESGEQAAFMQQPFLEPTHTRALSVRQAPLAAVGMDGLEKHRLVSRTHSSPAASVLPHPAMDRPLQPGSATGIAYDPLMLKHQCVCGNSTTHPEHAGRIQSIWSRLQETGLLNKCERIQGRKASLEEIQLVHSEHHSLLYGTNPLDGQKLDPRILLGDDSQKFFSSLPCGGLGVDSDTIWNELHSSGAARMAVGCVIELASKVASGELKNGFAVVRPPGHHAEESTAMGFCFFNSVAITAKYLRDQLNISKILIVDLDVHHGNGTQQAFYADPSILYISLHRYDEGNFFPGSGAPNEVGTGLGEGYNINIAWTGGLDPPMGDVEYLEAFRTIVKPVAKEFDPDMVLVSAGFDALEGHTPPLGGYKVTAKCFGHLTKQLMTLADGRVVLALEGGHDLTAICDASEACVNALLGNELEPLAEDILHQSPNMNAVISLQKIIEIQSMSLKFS

SMILES	IC50 [1]	IC50 [2]	IC50 [3]	IC50 [4]	IC50 [5]	IC50 [6]	IC50 [7]	IC50 [8]	IC50 [9]	IC50 [10]	IC50 [11]	IC50 [12]	IC50 [13]	IC50 [14]
O=C(/C=C/c1ccc(/C=N/O)cc1)NO	6.3 µM	2.9 µM	3.5 µM											
Nc1ccccc1NC(=O)/C=C/c1ccc(/C=N/OCc2ccc([N+](=O)[O-])cc2)cc1	> 20 µM	> 20 µM	> 20 µM											
Nc1ccccc1NC(=O)/C=C/c1ccc(/C=N/OCCN2CCOCC2)cc1	> 20 µM	8.9 µM	> 20 µM											
O=C(CCc1ccc(/C=N/OCc2ccc([N+](=O)[O-])cc2)cc1)NO	7.7 µM	0.95 µM	3.1 µM											
O=C(C#Cc1ccc(/C=N/OCc2ccc([N+](=O)[O-])cc2)cc1)NO	> 20 µM	> 20 µM	> 20 µM											
O=C(/C=C/c1cccc(/C=N/OCCN2CCOCC2)c1)NO	6.6 µM	1.9 µM	4 µM											
O=C(/C=C/c1ccc(/C=N/Oc2ccccc2)cc1)NO	5.1 µM	2.7 µM	3.7 µM											
O=C(/C=C/c1ccc(-c2cc(CN3CCOCC3)on2)cc1)NO	7 µM		4 µM	11.2 µM	0.127 µM	10.8 µM	6.1 µM	22.3 µM	6.26 µM	3.14 µM	6.26 µM			
O=C(/C=C/c1ccc(/C=N/OCc2c(F)c(F)c(F)c(F)c2F)cc1)NO	1.6 µM	0.7 µM	2.4 µM	12 µM	1.29 µM	7.2 µM	7.36 µM		5.48 µM	2.8 µM	5.48 µM	38.8 µM	11 µM	0.661 µM
O=C(/C=C/c1ccc(/C=N/OCc2ccc([N+](=O)[O-])cc2)cc1)NO	2.6 µM	0.76 µM	1.2 µM	2.47 µM	0.07 µM	1.16 µM	1.58 µM	2.3 µM	0.79 µM	0.16 µM	0.79 µM	2.04 µM	2.67 µM	0.124 µM
COC(=O)c1ccc(CO/N=C/c2ccc(/C=C/C(=O)NO)cc2)cc1	1.7 µM	0.82 µM	1.7 µM	6.43 µM	0.603 µM	3.67 µM	5.43 µM		10.8 µM	0.659 µM	1.82 µM	12.9 µM	15.8 µM	0.094 µM
O=C(/C=C/c1ccc(/C=N/OCCN2CCOCC2)cc1)NO	2.9 µM	1.7 µM	1.8 µM	13.1 µM	0.235 µM	7.36 µM	7.84 µM		3.06 µM	4.08 µM	3.06 µM	16.1 µM	27.7 µM	0.303 µM
C=CCO/N=C/c1ccc(/C=C/C(=O)NO)cc1	3.2 µM	1.4 µM	3.5 µM											
O=C(/C=C/c1ccc(/C=N/OCc2ccccc2)cc1)NO	1.6 µM	0.62 µM	2.8 µM											
O=C(/C=C/c1ccc(C2=NOC(CN3CCOCC3)C2)cc1)NO (configuration not stated)	9.9 µM		3 µM											

From ChEMBL document CHEMBL1153969, “N-Hydroxy-(4-oxime)-cinnamide: a versatile scaffold for the synthesis of novel histone deacetylase [correction of deacetilase] (HDAC) inhibitors” (Bioorg Med Chem Lett, 2009)
